Values of other authors in patent US20210307321A1, “CAPSULE SUSPENSIONS WITH AGROCHEMICAL ACTIVE INGREDIENTS” (priority 2018, published 2021).

O=C(Nc1ccc(F)cc1F)c1cccnc1Oc1cccc(C(F)(F)F)c1 [Diflufenican, 2′,4′-Difluoro-2-(a,a,a-trifluoro-m-tolyloxy)nicotinanilide]
solubility in non-water miscible solvents: very low solubility
